Reference: publication PMC10058905, “Bioassay-Guided Alkaloids Isolation from Camellia sinensis and Colchicum luteum: In Silico and In Vitro Evaluations for Protease Inhibition” (Molecules, 2023)

Biological target: T1, Trypsin from bovine pancreas (Bos taurus, UniProt P00760)
T1 construct: gene PRSS1
T1 sequence (P00760 24-246): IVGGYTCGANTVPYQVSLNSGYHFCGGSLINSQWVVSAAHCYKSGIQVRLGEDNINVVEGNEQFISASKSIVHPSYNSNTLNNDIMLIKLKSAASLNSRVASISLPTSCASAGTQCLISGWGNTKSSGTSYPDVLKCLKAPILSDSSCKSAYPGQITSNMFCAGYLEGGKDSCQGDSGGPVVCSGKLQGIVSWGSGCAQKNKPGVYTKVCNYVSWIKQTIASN
Experiment: spectrophotometric BApNA hydrolysis assay, positive control
Assay type: biochemical

## O=S(=O)(F)Cc1ccccc1 [PMSF]
  IC50: 110 ± 20 µM
